Assay results as given in patent publication US10045978B2 (AB SCIENCE, priority 2010, dated 2018).

Columns and labels:
[1] = test system: patients with severe systemic mastocytosis; experiment: Example 5 post-hoc analysis of pooled phase 2 studies; type: in vivo, human
Method: A first phase 2 study was conducted in patients with indolent forms of mastocytosis with handicap and not bearing activating point mutations in the phosphotransferase domain of c-Kit such as the main mutation Asp-816-Val. A second phase 2 study was conducted in patients with mastocytosis with handicap and bearing activating point mutations in the phosphotransferase domain of c-Kit such as the main mutation Asp-816-Val.
In one scenario, among those systemic mastocytosis patients from these pooled studies, 28 patients met the criteria for severe handicap at baseline, as defined as having at least one handicap selected from pruritus, flushes, fatigue or depression (defined respectively as: pruritus score ≥9, flushes frequency per week ≥8, FIS ≥75, or Hamilton score ≥19) with a total of 53 severe baseline handicaps reported (note that a given patient may present with more than one handicap). Assessment of treatment response on a handicap was defined as a ≥75% improvement from baseline on at least one handicap among pruritus, flushes, fatigue or depression.
In an alternative scenario, among those systemic mastocytosis patients from these pooled studies, 4 patients met the criteria for severe handicap at baseline, as defined as having handicaps of both pruritus and flushes (defined respectively as: pruritus score ≥9, and flushes frequency per week ≥8) with a total of 8 severe baseline handicaps reported. Assessment of treatment response on a handicap was defined as a ≥75% improvement from baseline on at least one handicap among pruritus or flushes. Overall, at week 24 there was a response rate of 50.0%.

[2] = test system: patients with indolent mastocytosis with handicap bearing the D816V c-Kit mutation; experiment: Example 2 phase 2a study, efficacy; type: in vivo, human; parameters: mean reduction of FIS score / mean reduction of pruritus score / mean reduction in frequency of flushes / reduction of daily number of stools / reduction of daily number of micturition / AFIRMM score reduction: concentration or dose not given beside the values; conditions: week 12
Description: Eligible patients were aged >18 years, had previously documented indolent systemic, smoldering systemic or cutaneous mastocytosis as per the WHO classification with associated disability as the result of mast cell released mediators. Patients had to have a positive D816V c-Kit mutation status, i.e. documented presence of D816V mutation in at least one infiltrated organ including bone marrow or skin. For patients with prior documented presence of D816V mutation in at least one infiltrated organ (bone marrow or skin), no test was performed at the screening visit; however, for those patients without such documentation it was necessary to perform c-Kit molecular analysis prior to randomization. Skin biopsy and optionally (unless patients had no cutaneous lesion) a bone marrow aspirate or biopsy, were performed at baseline to confirm the presence of D816V mutation and to count mast cells in the infiltrated organs. All skin biopsies, bone marrow aspirate or biopsies, performed for this study were sent to the AB Science central laboratory for sequencing and mast cell counting. Patients were classified as having a handicap if after appropriate symptomatic treatments they fulfilled at least one of the following a priori criteria: number of flushes/week ≥7; pruritus score ≥6; number of stools ≥4/day (i.e. diarrhea); micturition frequency ≥8/day (i.e. pollakiuria); Hamilton rating for depression ≥10; Fatigue Impact Scale (FIS) score ≥40; or EORTC quality-of-life questionnaire (QLQ-C30) score ≥60. Patients were excluded if they experienced inadequate organ function defined via blood test levels, or an Eastern Cooperative Oncology Group performance status >2. Other exclusion criteria included: life expectancy <6 months, severe or uncontrolled medical disease, and patients who were pregnant or nursing.
In accordance to the AFIRMM study (Hermine O, et al., 2008, PLoS ONE. 3:e2266), evaluation of treatment response was based upon the change of clinical symptoms associated with a patient's handicaps at week 12 relative to baseline. Efficacy was assessed on the symptoms of mastocytosis. Primary efficacy endpoints were treatment effect on the pruritus score, the number of flushes per week, the Hamilton score, and the Fatigue Impact scale.

[3] = from W8 to W24, listed as Masitinib
[4] = patients with this handicap at baseline

Cc1ccc(NC(=O)c2ccc(CN3CCN(C)CC3)cc2)cc1Nc1nc(-c2cccnc2)cs1 [masitinib, 4-(4-methylpiperazin-1-ylmethyl)-N-[4-methyl-3-(4-pyridin-3ylthiazol-2-ylamino)phenyl]benzamide]
Overall response ≥75% ([1]; Week 12, at least one severe handicap at baseline (28 patients)): 28.3%
Overall response ≥75% ([1]; Week 12, at least one severe handicap at baseline (28 patients), listed as Masitinib): 25.0%
Overall response ≥75% ([1]; Week 24, at least one severe handicap at baseline (28 patients)): 23.5%
Overall response ≥75% ([1]; Week 24, at least one severe handicap at baseline (28 patients), listed as Masitinib): 23.5%
Overall response ≥75% ([1]; Week 24, severe pruritus and flushes at baseline (4 patients, 8 handicaps)): 50.0
Cumulative response rate (≥75%): FIS only ([1]; from W8 to W24): 8.0%
Cumulative response rate (≥75%): Flushes only ([1]; from W8 to W24): 52.8%
Cumulative response rate (≥75%): Flushes or Pruritus ([1]; from W8 to W24): approximately 40%
Cumulative response rate (≥75%): Hamilton only ([1]; from W8 to W24): 16.7%
Cumulative response rate (≥75%): Hamilton or FIS ([1]; from W8 to W24): ~10%
Cumulative response rate (≥75%): Micturition frequency (pollakiuria) only ([1]; from W8 to W24): 1.8%
Cumulative response rate (≥75%): Overall Response ([1]; from W8 to W24): 26.1%
Cumulative response rate (≥75%): Pruritus only ([1]; from W8 to W24): 28.6%
Cumulative response rate (≥75%): Stool frequency (diarrhea) only ([1]; from W8 to W24): 18.4%
Cumulative response rate (≥75%): Flushes or Pruritus [1, 3]: 38.8%
Cumulative response rate (≥75%): Hamilton or FIS [1, 3]: 10.3%
AFIRMM score reduction [2]: 32.0%
Hamilton score improvement ([2]; PP population): 27.0%
mean reduction in frequency of flushes ([2]; PP population): 45.5%
mean reduction of FIS score ([2]; PP population): 51.8%
mean reduction of pruritus score ([2]; PP population): 46.0%
overall response rate (improvement ≥50%) ([2]; PP population (14 of 20 patients)): 70%
patients remaining stable ([2]; PP population (four patients)): 20%
reduction of daily number of stools ([2]; patients with diarrhea at baseline): 41.3%
reduction of daily number of micturition ([2]; patients with pollakiuria at baseline): 30.3%
Hamilton score improvement [2, 4]: 44.3%
mean reduction in frequency of flushes [2, 4]: 55.3%
mean reduction of FIS score [2, 4]: 45.6%
